Where two headings read alike, the source gives them in different places.
Legend:
[1] = tested on: human colon cancer HCT-116 cell line; experiment: MTT cytotoxicity assay, HCT-116; format: cell-based
Procedure: (§1) The selected compounds 5a–e and 10a–f were evaluated as possible cytotoxic agents against human colon cancer HCT-116 cell line and MCF-7 breast cancer cell line by MTT assay using doxorubicin as the standard drug. […] The IC50 value was calculated from the inhibition rates at the mentioned durations. […] This is because the IC50 values in 72 h with p-value < 0.0001 are less than those in 48 h.
(§2) The human cancer cells MCF-7and HCT-116 as well as Hek-293 as normal cells were purchased from Pastor Institute of Iran. The cells were maintained in RPMI 1640 medium supplemented with 10% heat-inactivated fetal bovine serum (Company: DNAbiotec, Cat number: DB9723), and streptomycin ([…]) and penicillin (100 U/ml) at 37 °C in a humidified atmosphere with 5% CO2 in the air.
(§3) The cytotoxic activities of compounds 5a–e and 10a–f were evaluated against cancerous cell lines. […] The absorbance was read at 570 nm against a test wavelength of 690 nm […]. The inhibition percentage of compounds was calculated as: ODwells treated with DMSO1%–ODwells treated with compounds/ODwells treated with DMSO1%*100 (OD = absorbance). Then, IC50 values were calculated by nonlinear regression analysis.

[2] = tested on: MCF-7 breast cancer cell line; experiment: MTT cytotoxicity assay, MCF-7; format: cell-based; conditions: Homo sapiens
Procedure: as §1, §2, §3

Hek-293 cell lines = experiment: MTT toxicity assessment on normal cells; format: cell-based; conditions: for toxicity against Hek-293 cell lines (in words): Hek-293 normal cells; for IC50: Homo sapiens, HEK293, Hek-293 normal cells, 72 h, read-out: IC50 (µM) Hek-293 after 72 h
Procedure: as §2, §3

PARP10 = conditions: cited from earlier work
[3] = HCT-116, 48 h, read-out: IC50 (µM) HCT-116 48 h
[4] = HCT-116, 72 h, read-out: IC50 (µM) HCT-116 72 h
[5] = MCF7, MCF-7, 48 h, read-out: IC50 (µM) MCF-7 48 h
[6] = MCF7, MCF-7, 72 h, read-out: IC50 (µM) MCF-7 72 h

melting point [°C] | SMILES | IC50 [1, 3] [µM] | IC50 [1, 4] [µM] | IC50 [2, 5] [µM] | IC50 [2, 6] [µM] | toxicity against Hek-293 cell lines (in words) (Hek-293 cell lines) | IC50 (Hek-293 cell lines) [µM] | IC50 (PARP10) [µM]
254 to 258 | Cc1ccccc1Nc1nc2ccccc2c(=O)n1-c1ccccc1 [Compound 5a, 2-[(2-Methylphenyl)amino]-3-phenylquinazolin-4(3H)-one] | 7.15 | 4.87 | 71.2 | 14.7 | high toxicity | 8.71 ± 1.23 | 
194 to 197 | O=c1c2ccccc2nc(Nc2ccccc2)n1CCl [Compound 5b, 3-(chloromethyl)-2-(phenylamino)quinazolin-4(3H)-one] | 59.3 | 37.8 | 101 | 76.2 |  |  | 
141 to 144 | O=c1c2ccccc2nc(Nc2ccccc2)n1C1CC1 [Compound 5c, 3-cyclopropyl-2-(phenylamino)quinazolin-4(3H)-one] | 59.2 | 29.2 | 74.9 | 50.4 |  |  | 
256 to 259 | COc1ccc(-n2c(Nc3ccccc3)nc3ccccc3c2=O)cc1 [Compound 5d, 3-(4-methoxyphenyl)-2-(phenylamino)quinazolin-4(3H)-one] | 39.2 | 17.8 | 28.8 | 25 | low toxicity | 68.1 ± 12.3 | 
143 to 146 | CC(C)n1c(Nc2ccccc2)nc2ccccc2c1=O [Compound 5e, 3-isopropyl-2-(phenylamino)quinazolin-4(3H)-one] | 88.7 | 63.3 | 79 | 42.7 |  |  | 
65 to 68 | O=C1c2ccccc2NC(c2ccc(OCc3cn(Cc4ccccc4)nn3)cc2)N1Cc1ccccc1 (stereo not drawn) [Compound 10a, 3-benzyl-2-(4-((1-benzyl-1H-1,2,3-triazol-4-yl)methoxy)phenyl)-2,3-dihydroquinazolin-4(1H)-one] | 88.8 | 29 | 62.3 | 18.9 |  |  | 
83 to 86 | O=C1c2ccccc2NC(c2ccc(OCc3cn(Cc4ccc(F)cc4)nn3)cc2)N1Cc1ccccc1 (stereo not drawn) [Compound 10b, 3-benzyl-2-(4-((1-(4-fluorobenzyl)-1H-1,2,3-triazol-4-yl)methoxy)phenyl)-2,3 dihydroquinazolin-4(1H)-one] | 184 | 64 | 139 | 98.5 |  |  | 
84 to 87 | O=C1c2ccccc2NC(c2ccc(OCc3cn(Cc4ccc(Cl)cc4)nn3)cc2)N1Cc1ccccc1 (stereo not drawn) [Compound 10c, 3-benzyl-2-(4-((1-(4-chlorobenzyl)-1H-1,2,3-triazol-4-yl)methoxy)phenyl)-2,3-dihydroquinazolin-4(1H)-one] | 120 | 61 | 52 | 32.3 |  |  | 
93 to 95 | O=C1c2ccccc2NC(c2ccc(OCc3cn(Cc4ccc(Br)cc4)nn3)cc2)N1Cc1ccccc1 (stereo not drawn) [Compound 10d, 3-benzyl-2-(4-((1-(4-bromobenzyl)-1H-1,2,3-triazol-4-yl)methoxy)phenyl)-2,3-dihydroquinazolin-4(1H)-one] | 251 | 206 | 44.7 | 14.8 |  |  | 
63 to 65 | Cc1ccccc1Cn1cc(COc2ccc(C3Nc4ccccc4C(=O)N3Cc3ccc(F)cc3)cc2)nn1 (stereo not drawn) [Compound 10e, 3-(4-fluorobenzyl)-2-(4-((1-(2-methylbenzyl)-1H-1,2,3-triazol-4-yl)methoxy)phenyl)-2,3-dihydroquinazolin-4(1H)-one] | 48.2 | 33.3 | 79.1 | 48.8 |  |  | 
69 to 72 | O=C1c2ccccc2NC(c2ccc(OCc3cn(Cc4ccc(F)cc4)nn3)cc2)N1Cc1ccc(F)cc1 (stereo not drawn) [Compound 10f, 3-(4-fluorobenzyl)-2-(4-((1-(4-fluorobenzyl)-1H-1,2,3-triazol-4-yl)methoxy)phenyl)-2,3-dihydroquinazolin-4(1H)-one] | 40.4 | 10.1 | 41.5 | 16.3 | low toxicity | 56.1 ± 10.4 | 
 | CC#Cc1ccc2c(=O)[nH]c(CSc3ccc(C(=O)O)cc3)nc2c1 [Compound F] |  |  |  |  |  |  | 0.2
 | CC#Cc1ccc2c(=O)[nH]c(CSc3ncccn3)nc2c1 [Compound G] |  |  |  |  |  |  | 9.3
 | COc1cccc2c1C(=O)c1c(O)c3c(c(O)c1C2=O)C[C@@](O)(C(=O)CO)C[C@@H]3O[C@H]1C[C@H](N)[C@H](O)[C@H](C)O1 [DOX, doxorubicin, reference compound] | 1.66 | 1.2 | 1.33 | 1.08 |  | 0.75 ± 0.09 | 
 | Cc1c(-c2ccnc(C(F)(F)F)c2)ccc2c1CCNC2=O [H] |  |  |  |  |  |  | 2.7

— PMC9118628, “Synthesis, molecular docking, and cytotoxicity of quinazolinone and dihydroquinazolinone derivatives as cytotoxic agents” (BMC Chemistry, 2022)
